In US8183238B2, “Bicyclic and tricyclic compounds as KAT II inhibitors” (priority 2009, dated 2012):
Where a name gives a salt, the structure may show the parent alone.

Molecular target: human KAT II (hKAT II) enzyme (Homo sapiens, UniProt Q8N5Z0)
Assay: KAT II Inhibition Spectra Assay
Assay type: biochemical
Details: Table 5; hKAT II, decrease in OD370, 37° C., 15-20 h; read-out: KATII IC50
Description: Formation of kynurenic acid (KYNA) is indirectly assessed by a decrease in light absorbance at 370 nm (OD370) as the L-kynurenine (KYN) substrate is converted by the human KAT II (hKAT II) enzyme into KYNA. An inhibitor would therefore inhibit the decrease in OD370.
The protocol was performed by placing the following reagents into a Costar 384 well black plate (30 μL total assay volume/well): • 10 μL of 3× concentrated compound; • 10 μL of 3× concentrated substrate mix (BGG (Sigma G-5009); 3 mM L-Kynurenine in 150 mM Tris Acetate (Sigma K3750); 3 mM α-ketoglutaric acid in 150 mM Tris Acetate (Sigma K2010); and 210 μM pyridoxal 5-phosphate (PLP) in 150 mM Tris Acetate (Sigma 9255)); and • 10 μL of 3× concentrated enzyme (15 nM enzyme in 150 mM Tris Acetate with 0.3% bovine serum).
Plates were sealed and incubated at 37° C. for 15-20 h before reading OD370 on a SpectraMax Plus plate reader. IC50s were generated by comparing the efficacy of compounds across a concentration range to inhibit a reduction in the OD370 value relative to assay wells with DMSO added in place of concentrated compound.

Sequence of human KAT II (hKAT II) enzyme (Q8N5Z0 30-425): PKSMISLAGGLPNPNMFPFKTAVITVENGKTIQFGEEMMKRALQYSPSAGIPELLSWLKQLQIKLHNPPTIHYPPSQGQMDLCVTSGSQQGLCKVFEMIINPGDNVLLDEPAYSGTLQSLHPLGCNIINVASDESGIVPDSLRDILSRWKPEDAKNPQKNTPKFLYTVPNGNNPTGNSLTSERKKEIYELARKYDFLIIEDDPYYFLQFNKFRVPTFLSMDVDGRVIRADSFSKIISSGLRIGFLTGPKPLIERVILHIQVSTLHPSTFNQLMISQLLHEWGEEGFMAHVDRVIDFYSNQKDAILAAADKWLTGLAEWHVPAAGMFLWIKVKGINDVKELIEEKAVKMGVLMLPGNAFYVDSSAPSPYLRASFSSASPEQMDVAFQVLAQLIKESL

Row | Structure (SMILES) | IC50 [nM]
1 | NC1Cc2cccnc2N(O)C1=O (stereo not shown) [Example 1, 3-amino-1-hydroxy-3,4-dihydro-1,8-naphthyridin-2(1H)-one, trifluoroacetate salt] | 52.7
2 | NC1Cc2cc(F)ccc2N(O)C1=O (stereo not shown) [Example 2, 3-amino-6-fluoro-1-hydroxy-3,4-dihydroquinolin-2(1H)-one, hydrochloride salt] | 23.4
3 | NC1Cc2cccc(C(F)(F)F)c2N(O)C1=O (stereo not shown) [Example 3, 3-amino-1-hydroxy-8-(trifluoromethyl)-3,4-dihydroquinolin-2(1H)-one] | 204
4 | N[C@@H]1Cc2ccc(Br)cc2N(O)C1=O [Example 5, (3R)-3-amino-7-bromo-1-hydroxy-3,4-dihydroquinolin-2(1H)-one] | 131
5 | N[C@H]1Cc2ccc(Br)cc2N(O)C1=O [Example 6, (3S)-3-amino-7-bromo-1-hydroxy-3,4-dihydroquinolin-2(1H)-one] | 25.4
6 | C[C@H]1c2ccccc2N(O)C(=O)[C@H]1N [Example 7, (3S,4S)-3-amino-1-hydroxy-4-methyl-3,4-dihydroquinolin-2(1H)-one, hydrochloride salt] | 3280
7 | Cc1cc(Cl)cc2c1N(O)C(=O)C(N)C2 (stereo not shown) [Example 8, 3-amino-6-chloro-1-hydroxy-8-methyl-3,4-dihydroquinolin-2(1H)-one] | 608
8 | NC1Cc2ncccc2N(O)C1=O (stereo not shown) [Example 9, 3-amino-1-hydroxy-3,4-dihydro-1,5-naphthyridin-2(1H)-one, dihydrochloride salt] | 2230
9 | NC1Cc2c(ccc3ccccc23)N(O)C1=O (stereo not shown) [Example 11, 2-amino-4-hydroxy-1,2-dihydrobenzo[f]quinolin-3(4H)-one] | 121
10 | N[C@@H]1Cc2ccccc2N(O)C1=O [Example 14] | 270
11 | NC1Cc2ccc(Cl)cc2N(O)C1=O (stereo not shown) [Example 15] | 11.1
12 | NC1Cc2cc(Cl)ccc2N(O)C1=O (stereo not shown) [Example 16] | 22.7
13 | Cc1ccc2c(c1)N(O)C(=O)C(N)C2 (stereo not shown) [Example 17] | 95.1
14 | N[C@H]1Cc2cccc(C(F)(F)F)c2N(O)C1=O [Example 20] | 127
15 | NC1Cc2cc(Cl)cc(C(F)(F)F)c2N(O)C1=O (stereo not shown) [Example 23] | 65.3
16 | N[C@H]1Cc2c(F)cccc2N(O)C1=O [Example 27] | 51.9
17 | NC1Cc2ccc(C3CC3)cc2N(O)C1=O (stereo not shown) [Example 30] | 23.7
18 | N[C@H]1Cc2cc(Cl)cc(F)c2N(O)C1=O [Example 31] | 49.7
19 | N[C@H]1Cc2cc(OC(F)(F)F)ccc2N(O)C1=O [Example 32] | 35.9

More lines, in order of falling IC50, values ahead:

Row | IC50 [nM] | Structure (SMILES)
20 | 3040 | Cc1cccc2c1N(O)C(=O)C(N)C2 (stereo not shown) [Example 19]
21 | 1330 | N[C@H]1Cc2cc(-c3ccc(C(F)(F)F)cc3)cc(C(F)(F)F)c2N(O)C1=O [Example 28]
22 | 379 | COc1cccc2c1C[C@H](N)C(=O)N2O [Example 12, (3S)-3-amino-1-hydroxy-5-methoxy-3,4-dihydroquinolin-2(1H)-one, hydrochloride salt]
23 | 139 | Cc1ccc2c(c1)CC(N)C(=O)N2O (stereo not shown) [Example 18]
24 | 88 | CCc1ccc2c(c1)N(O)C(=O)C(N)C2 (stereo not shown) [Example 26]
25 | 73.7 | NC1Cc2cc(C(F)(F)F)ccc2N(O)C1=O (stereo not shown) [Example 10, 3-amino-1-hydroxy-6-(trifluoromethyl)-3,4-dihydroquinolin-2(1H)-one, hydrochloride salt]
26 | 57.3 | COc1cccc(-c2ccc3c(c2)N(O)C(=O)C(N)C3)c1 (stereo not shown) [Example 13, 3-amino-1-hydroxy-7-(3-methoxyphenyl)-3,4-dihydroquinolin-2(1H)-one, hydrochloride salt]
27 | 50 | N[C@H]1Cc2cc(Br)cc(C(F)(F)F)c2N(O)C1=O [Example 24]
28 | 48.4 | CC(C)Oc1ccc2c(c1)N(O)C(=O)[C@@H](N)C2 [Example 25]
29 | 46.2 | NC1Cc2cc(C3CC3)ccc2N(O)C1=O (stereo not shown) [Example 21]
30 | 45.2 | N[C@H]1Cc2c(Cl)cccc2N(O)C1=O [Example 22]
31 | 10.5 | COc1ccc2c(c1)N(O)C(=O)C(N)C2 (stereo not shown) [Example 29]
